From patent US6906095B2, “Indolylalkylidenehydrazine-carboximidamide derivatives as 5-hydroxytryptamine-6 ligands” (Wyeth, priority 2002, dated 2005) come the findings set out here.

For the test, the target named is T1, human cloned 5-HT6 receptors (Homo sapiens, UniProt P50406).
T1 construct: expressed in transfected cells; host or cells: Hela cells
T1 sequence (P50406 whole entry): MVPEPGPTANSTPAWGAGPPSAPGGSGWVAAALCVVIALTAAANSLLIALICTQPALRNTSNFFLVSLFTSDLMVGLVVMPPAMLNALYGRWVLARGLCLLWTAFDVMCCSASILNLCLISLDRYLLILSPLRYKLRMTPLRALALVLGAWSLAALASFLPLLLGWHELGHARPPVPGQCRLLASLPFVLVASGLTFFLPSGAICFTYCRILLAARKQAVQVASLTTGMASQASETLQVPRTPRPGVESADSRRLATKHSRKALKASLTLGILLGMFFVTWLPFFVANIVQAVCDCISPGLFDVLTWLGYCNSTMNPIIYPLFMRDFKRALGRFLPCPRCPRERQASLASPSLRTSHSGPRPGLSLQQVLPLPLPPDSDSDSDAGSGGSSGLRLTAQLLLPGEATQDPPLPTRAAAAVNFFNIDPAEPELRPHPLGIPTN
As to the kind of experiment: 5-HT6 binding affinity, [3H]-LSD displacement in membranes of Hela cells. The conditions noted are these: test compound dose 100 nM; [3H]-LSD 3.0 nM.
The compound `CC(=NNC(=N)NCc1ccccc1)c1cn(S(=O)(=O)c2ccccc2)c2ccccc12` [Example 125, N-benzyl-2-{1-[1-(phenylsulfonyl)-1H-indol-3-yl]ethylidene}hydrazinecarboximidamide] came in with an inhibition at 0.1 µM of 39.1%. With `CC(=NNC(=N)NCc1ccccn1)c1cn(S(=O)(=O)c2ccccc2)c2ccccc12` [Example 126, 2-{1-[1-(phenylsulfonyl)-1H-indol-3-yl]ethylidene}-N-(pyridin-2-ylmethyl)hydrazinecarboximidamide] the figure was 37.7%. With `CC(=NNC(=N)NCCO)c1cn(S(=O)(=O)c2ccccc2)c2ccccc12` [Example 127, N-(2-hydroxyethyl)-2-{1-[1-(phenylsulfonyl)-1H-indol-3-yl]ethylidene}hydrazinecarboximidamide] the figure was 83.3%.

As to `CC(=NNC(=N)N)c1cn(C(=O)Oc2ccccc2)c2ccccc12` [Example 128, phenyl 3-(1-{2-[amino(imino)methyl]hydrazono}ethyl)-1H-indole-1-carboxylate], testing at 0.1 µM gave an inhibition of 23.9%. With `CC(=NNC(=N)N)c1cn(C(=O)Nc2ccccc2)c2ccccc12` [Example 129, 3-(1-{2-[amino(imino)methyl]hydrazono}ethyl)-N-phenyl-1H-indole-1-carboxamide], 0.1 µM produced 23.4% inhibition. Compound `CC(=NNC(=N)N)c1cn(C(=O)c2ccccc2)c2ccccc12` [Example 130, 2-[1-(1-benzoyl-1H-indol-3-yl)ethylidene]hydrazinecarboximidamide] came in with an inhibition at 0.1 µM of 49.6%.
